Tests used:
in vivo [1] = conditions: female, New Zealand white, rabbit, iv
Description: Blood samples were collected at fixed time points postdose to determine full PK profiles. Plasma samples were analyzed by ELISA. Plasma concentration–time profiles were analyzed by noncompartmental analysis.
Rabbits: Female rabbits (New Zealand white, Charles River; 21–23 weeks; 2.5–3.5 kg) were group-
housed (10 per cage) in normal day–night rhythm from arrival and had free access to food and water.
The rabbits were treated against coccidiosis during their 5-week acclimation period upon arrival. Iv
dosing was performed as a bolus injection into an ear vein with a dosing volume of 0.1 mL/kg. The
dosing solution was at room temperature before injection. Venous blood sampling was performed
directly through puncture of an ear vein using a needle. A full plasma concentration–time profile was
obtained from each animal.
Blood (300 µL) was collected directly into test
tubes containing EDTA buffer (Microvette CB 300 K2E). Samples were kept on wet ice until
centrifugation (10 min, 4 °C, 3000 rpm). Plasma (100 µL) was transferred immediately to Micronic
tubes and kept at –20 °C until analysis.
Plasma analysis: Plasma samples were analyzed by a commercially available kit (Millipore, Human
Amylin ELISA, cat. #EZHA-52-K). […]
was applied and the plate was read on a fluorescent reader with an excitation/emission wavelength of
samples. The lower limit of quantification (LLOQ) was 100–500 pM.

in vivo [2] = conditions: male, beagle, dog, iv
beagle dogs = test: Acute dog food intake assay
cAMY1R = test: Species-specific cAMP assay, cAMY1R; conditions: for Ratio CTR/AMY1R (canine, functional): ratio of cAMP EC50 values, canine receptors
cAMY3R = test: Species-specific cAMP assay, cAMY3R; conditions: for Ratio CTR/AMY3R (canine, functional): ratio of cAMP EC50 values, canine receptors
rAMY1R [3] = target: T1, rAMY1R (Rattus norvegicus, UniProt P32214+Q9JJ74); test: Species-specific cAMP assay, rAMY1R; conditions: ratio of cAMP EC50 values, rat receptors
T1 sequence (P32214 25-516): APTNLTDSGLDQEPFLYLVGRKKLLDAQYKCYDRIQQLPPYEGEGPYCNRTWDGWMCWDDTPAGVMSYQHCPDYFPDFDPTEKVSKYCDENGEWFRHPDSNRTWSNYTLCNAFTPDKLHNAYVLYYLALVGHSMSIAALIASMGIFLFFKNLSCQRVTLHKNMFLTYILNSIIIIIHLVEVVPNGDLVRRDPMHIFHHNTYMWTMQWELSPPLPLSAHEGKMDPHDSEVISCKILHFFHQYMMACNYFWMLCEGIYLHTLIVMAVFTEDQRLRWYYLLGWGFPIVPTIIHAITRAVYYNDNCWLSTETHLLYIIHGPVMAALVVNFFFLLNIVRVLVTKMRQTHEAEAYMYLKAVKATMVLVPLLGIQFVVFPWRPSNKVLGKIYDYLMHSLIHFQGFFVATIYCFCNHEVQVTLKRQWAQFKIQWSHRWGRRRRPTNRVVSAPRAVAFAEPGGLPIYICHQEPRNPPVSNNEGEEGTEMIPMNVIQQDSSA
T1 sequence (Q9JJ74 27-148 partner): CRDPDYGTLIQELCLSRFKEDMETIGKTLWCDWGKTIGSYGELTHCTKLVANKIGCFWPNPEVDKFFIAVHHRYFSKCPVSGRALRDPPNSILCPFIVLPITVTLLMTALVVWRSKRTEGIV

rAMY1R [4] = target: T1, rAMY1R; test: Whole-cell competition binding, rAMY1R; design: expressed in transfected cells; host or cells: BHK tk-ts 13 cells, transient, FuGENE 6; conditions: IC50 for the CTR divided by that of the AMYR, rat receptors
hAMY1R = hAMY1R (Homo sapiens, UniProt O60894+P30988); test: Whole-cell competition binding, hAMY1R; design: expressed in transfected cells; host or cells: BHK tk-ts 13, transient co-transfection (FuGENE 6); conditions: IC50 for the CTR divided by that of the AMYR, human receptors
[5] = cAMP HTRF, transiently transfected BHK cells, 30 min room temperature, five experiments

hAMY1R, sequence (P30988 25-474): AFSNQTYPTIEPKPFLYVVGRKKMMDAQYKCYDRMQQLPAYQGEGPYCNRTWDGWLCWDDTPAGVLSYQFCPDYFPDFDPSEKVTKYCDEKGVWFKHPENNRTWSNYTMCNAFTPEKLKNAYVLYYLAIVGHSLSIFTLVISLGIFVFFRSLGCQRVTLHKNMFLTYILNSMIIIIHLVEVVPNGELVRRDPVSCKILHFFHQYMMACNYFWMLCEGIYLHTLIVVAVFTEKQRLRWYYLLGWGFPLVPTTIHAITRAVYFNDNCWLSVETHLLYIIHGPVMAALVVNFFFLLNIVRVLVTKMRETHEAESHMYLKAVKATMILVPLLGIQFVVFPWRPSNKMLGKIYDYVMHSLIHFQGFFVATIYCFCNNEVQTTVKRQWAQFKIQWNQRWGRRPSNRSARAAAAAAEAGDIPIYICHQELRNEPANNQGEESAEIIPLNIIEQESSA
hAMY1R, sequence (O60894 27-148 partner): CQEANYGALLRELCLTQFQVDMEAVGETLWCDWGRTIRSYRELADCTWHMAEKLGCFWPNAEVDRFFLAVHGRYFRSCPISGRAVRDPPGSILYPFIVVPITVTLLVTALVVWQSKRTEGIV

## CC[C@H](C)[C@H](NC(=O)[C@H](C)NC(=O)CNC(=O)[C@H](Cc1ccccc1)NC(=O)[C@H](CC(N)=O)NC(=O)[C@@H]1CCCN1C(=O)[C@H](CO)NC(=O)[C@H](CO)NC(=O)[C@H](Cc1c[nH]cn1)NC(=O)[C@H](CCCNC(=N)N)NC(=O)[C@H](CC(C)C)NC(=O)[C@H](Cc1ccccc1)NC(=O)[C@H](CC(=O)O)NC(=O)[C@H](C)NC(=O)[C@H](CC(C)C)NC(=O)[C@H](CCCNC(=N)N)NC(=O)[C@H](CCC(N)=O)NC(=O)[C@@H](NC(=O)[C@H](C)NC(=O)[C@@H]1CSSC[C@H](NC(=O)[C@@H](N)CCCCNC(=O)CC[C@H](NC(=O)CC[C@H](NC(=O)CCCCCCCCCCCCCCCCCCC(=O)O)C(=O)O)C(=O)O)C(=O)N[C@@H](CC(N)=O)C(=O)N[C@@H]([C@@H](C)O)C(=O)N[C@@H](C)C(=O)N[C@@H]([C@@H](C)O)C(=O)N1)[C@@H](C)O)C(=O)N1CCC[C@H]1C(=O)N[C@@H](CO)C(=O)N[C@@H](CO)C(=O)N[C@H](C(=O)N[C@@H](CC(N)=O)C(=O)N[C@H](C(=O)NCC(=O)N[C@@H](CO)C(=O)N[C@@H](CCCNC(=N)N)C(=O)N[C@H](C(=O)N[C@@H](Cc1ccc(O)cc1)C(N)=O)[C@@H](C)O)C(C)C)[C@@H](C)O [NN1213]
In vivo [1]
  half-life: 49 h
In vivo [2]
  half-life: 76 h
Beagle dogs; single sc administration 300 nmol/kg, four meals over 48 h
  food intake reduction, first 48 h: 90%
Beagle dogs; single sc dose 3 nmol/kg
  effect on appetite: did not affect appetite
Beagle dogs; single sc dose 30 nmol/kg
  duration of appetite suppression: at least 7 days
Beagle dogs; single sc dose ranging from 3 to 300 nmol/kg
  tolerability (discomfort, vomiting): not associated with any signs of discomfort in the dogs and no vomiting
cAMY1R; [5]
  cAMY1R pEC50: 9.87
cAMY1R
  Ratio CTR/AMY1R (canine, functional): 3
cAMY1R; listed as NN1213/peptide 21
  Ratio CTR/AMY1R (canine, functional): 2
cAMY3R; [5]
  cAMY3R pEC50: 9.74
cAMY3R
  Ratio CTR/AMY3R (canine, functional): 2
cAMY3R; listed as NN1213/peptide 21
  Ratio CTR/AMY3R (canine, functional): 3
rAMY1R [3]
  Ratio CTR/AMY1R (rat, functional): 336
rAMY1R [4]
  Ratio CTR/AMY1R (rat, binding): 190
hAMY1R
  Ratio CTR/AMY1R (human, binding): 120

Source: publication PMC11284788, “NN1213 – A Potent, Long-Acting, and Selective Analog of Human Amylin” (Journal of Medicinal Chemistry, 2024)
